{"source": "patent US20100143441A1", "about": "(OsteoGeneX Inc., priority 2008, published 2010)", "key": {"SOST": {"biological_target": "SOST (Mus musculus, UniProt Q99P68)", "sequence (Q99P68 24-211)": "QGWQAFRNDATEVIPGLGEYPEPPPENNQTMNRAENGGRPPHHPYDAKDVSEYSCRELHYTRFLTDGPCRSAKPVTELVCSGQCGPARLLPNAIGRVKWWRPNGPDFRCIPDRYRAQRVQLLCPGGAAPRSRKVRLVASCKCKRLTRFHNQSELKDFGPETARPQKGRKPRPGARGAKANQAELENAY", "conditions": "predetermined dose for a complete dosing schedule, micro-CT versus control mouse", "experimental": "(§1) A general method of identifying SOST antagonists involves evaluating the effects of antagonist candidates on bone formation under controlled conditions. Preferably bone formation is determined using micro-CT techniques on live animals. Preferred animals include rodents, more preferred are primates. Femur, tibia and vertebrae bones are particularly useful subjects for such study.\nBriefly, the test animal is treated with a predetermined dose of a SOST antagonist candidate.\nThis can be accomplished by any suitable method, but is preferably performed on live animals to analyze the bone mineral content. […] A SOST antagonist candidate suitable for use as a SOST antagonist is identified by noting significant bone formation in the test animal when compared to the control animal. Bone formation in the test bone(s) of the test animal can be 0.5%, 1, 5, 10, 20, 30, 40, 50, 60, 70, 80, 90, 100, 200, 300, 400, 500, 600, 700, 800, 900 or 1000% more bone formation than is present in the same bones of the control animal. More preferably, bone formation can be 20%, most preferably 30% or 40%. Where necessary, levels of bone formation can be calculated by determining the volume of bone formation present in each animal. Calculations can be performed by constructing a 3-dimensional image of the bone formation and calculating the volume from the image with the aid of e.g., histomorphometry. […]"}, "Wnt pathway": {"test_system": "Wnt pathway", "conditions": "Wnt+Sclerostin+2.5, 6.3, 12.5 or 25 ng nortriptyline; compared with Wnt only and Wnt+Sclerostin", "experimental": "as §1"}}}
{"smiles": "CNCCC=C1c2ccccc2CCc2ccccc21", "note": "[nortriptyline]", "values": [{"measurement": "bone growth (quantity of bone formation present)", "setting": "SOST", "value": "promoting bone growth"}, {"measurement": "modulation of the Wnt pathway", "setting": "Wnt pathway", "value": "modulating the Wnt pathway"}]}
